Data reported in patent publication US8901307B2, “Chemical compounds 251” (AstraZeneca AB, priority 2008, dated 2014).
Counter-ions that a name gives are not always drawn.

Key:
[1] = biological target: T1, human His-PIM1 [2-313] (Homo sapiens, UniProt P11309); test: PIM1 in-vitro mobility shift assay (Caliper LC3000, FL-Ahx-Bad phosphorylation); assay type: biochemical; settings: 1.5 h; percent inhibition at 0.3 uM compound; read-out: PIM1 % I at 0.3 uM
T1 construct: purified human His-PIM1 [2-313] enzyme; His (N); purchased University of Dundee, Scotland; host or cells: baculovirus system
T1 sequence (P11309 2-313): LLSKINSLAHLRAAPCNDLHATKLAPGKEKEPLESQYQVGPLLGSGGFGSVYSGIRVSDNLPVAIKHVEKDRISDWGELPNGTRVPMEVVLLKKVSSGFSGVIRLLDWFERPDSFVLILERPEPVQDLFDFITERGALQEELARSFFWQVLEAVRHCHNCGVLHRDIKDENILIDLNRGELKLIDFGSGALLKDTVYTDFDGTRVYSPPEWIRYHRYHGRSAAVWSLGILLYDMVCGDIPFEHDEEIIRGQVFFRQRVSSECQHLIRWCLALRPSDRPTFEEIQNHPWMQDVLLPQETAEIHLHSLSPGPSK
From the text: PIM1 In-Vitro Mobility Shift Assay
(§1) One may determine the activity of purified human His-PIM1 [2-313] enzyme in-vitro using a mobility shift assay on a Caliper LC3000 reader (Caliper, Mass.), which measures fluorescence of a phosphorylated and unphosphorylated FL-Ahx-Bad (FITC-(AHX)RSRHSSYPAGT-COOH, Primm 200606-00289, Primm Biotech, Mass.) and calculates a ratiometric value to determine percent turnover. One may express PIM1 (University of Dundee, Scotland) in baculovirus system with a typical yield of >85% purity.
(§2) One determines phosphorylation of the FL-Ahx-Bad in the presence and absence of the compound of interest. One preincubates 5 µl of Enzyme/Substrate/adenosine triphosphate (ATP) mix consisting of 2.4 nM PIM1, 3.6 uM FL-Ahx-Bad, and 240 uM ATP in 1.2× buffer with 2 ul of compound for 20 minutes at 25° C. One initiates reactions with 5 ul of Metal mix consisting of 24 mM MgCl2 in 1.2× buffer and incubated at 25° C. for 90 minutes and stops the reactions by addition of 5 ul of Stop mix consisting of 100 mM HEPES, 121 mM ethylenediamine tetraacetic acid, 0.8% Coatin Reagent 3 (Caliper, Mass.), and 0.01% Tween. One detects phosphorylated and unphosphorylated substrate by a Caliper LC3000 reader (Caliper, Mass.) in the presence of separation buffer consisting of 100 mM HEPES, 16 mM ethylenediamine tetraacetic acid, 0.1% Coatin Reagent 3 (Caliper, Mass.), 0.015% Brij-35, 5% DMSO, and 5.6 mM MgCl2. One may use the following separation conditions for a Caliper LC3000: −1.0 PSI, −2000 V upstream voltage, −400 V downstream voltage, 0.2 second sample sip, 45 second post sip, 10% laser strength.
The table 1 below provides the percent inhibition of PIM1 at 0.3 micromolar for Examples provided herein. Several examples were tested more than once. Variations in the experimental outcomes, negative values, or values over 100% inhibition are presumably due to experimental error inherent in the assay.

[2] = biological target: T2, human His-PIM2 [23-299] (Homo sapiens, UniProt Q9P1W9); test: PIM2 in-vitro mobility shift assay (Caliper LC3000, FL-Ahx-Bad phosphorylation); assay type: biochemical; settings: 1.5 h; percent inhibition at 0.3 uM compound; read-out: PIM2 % I at 0.3 uM
T2 construct: purified human His-PIM2 [23-299] enzyme; His (N); host or cells: E. coli
T2 sequence (Q9P1W9 23-299): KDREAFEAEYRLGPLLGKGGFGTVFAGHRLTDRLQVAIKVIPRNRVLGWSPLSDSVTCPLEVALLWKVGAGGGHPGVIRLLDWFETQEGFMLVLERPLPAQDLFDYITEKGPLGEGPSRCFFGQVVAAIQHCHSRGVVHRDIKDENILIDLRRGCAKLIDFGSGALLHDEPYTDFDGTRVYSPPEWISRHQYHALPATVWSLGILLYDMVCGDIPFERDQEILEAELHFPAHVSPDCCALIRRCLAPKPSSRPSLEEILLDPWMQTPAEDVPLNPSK
From the text: PIM2 In-Vitro Mobility Shift Assay
as §1, with “His-PIM2 [23-299]” for “His-PIM1 [2-313]”, “PIM2 (produced at AstraZeneca, R&D Boston)” for “PIM1 (University of Dundee, Scotland)”, “E. coli cells” for “baculovirus system”, “>90%” for “>85%”
as §2, with “5 uL” for “5 µl”, “and 12” for “and 240”, “5 uL” for “5 ul”, “and incubates” for “and incubated”, “90 minutes. One” for “90 minutes and”, “stops” for “stops the”

inhibition at 0.3 µM [1] [%]	inhibition at 0.3 µM [2] [%]	SMILES
< 5	< 5	O=C1NC(=O)/C(=C/c2ccc[nH]c2=O)S1 [Example 70, (Z)-5-((2-oxo-1,2-dihydropyridin-3-yl)methylene)thiazolidine-2,4-dione]
> 95	79.9	O=C1NC(=O)/C(=C/c2cc(C(F)(F)F)cc(Cl)c2N2CCCNCC2)S1 [Example 5A]
< 5	–	O=C1NC(=O)/C(=C/c2cnc3[nH]ccc3c2)S1 [Example 80, (5Z)-5-(1H-pyrrolo[2,3-b]pyridin-5-ylmethylene)-1,3-thiazolidine-2,4-dione]
19	14	N[C@H]1CCN(c2ccc(C(=O)O)cc2/C=C2\SC(=O)NC2=O)C1 [Example 122AH, (S,Z)-4-(3-aminopyrrolidin-1-yl)-3-((2,4-dioxothiazolidin-5-ylidene)methyl)benzoic acid]
62.1	17.5	COc1ccc(OCCN2CCOCC2)c(/C=C2\SC(=O)NC2=O)c1 [Example 62, (Z)-5-(5-methoxy-2-(2-morpholinoethoxy)benzylidene)thiazolidine-2,4-dione]
> 95	80.1	CN(C)CC(=O)N[C@H]1CCN(c2c(Cl)cccc2/C=C2\SC(=O)NC2=O)C1 [Example 145]
> 95	> 95	COCCOc1cccc(/C=C2\SC(=O)NC2=O)c1N1CC[C@H](N)C1 [Example 122AB, (S,Z)-5-(2-(3-aminopyrrolidin-1-yl)-3-(2-methoxyethoxy)benzylidene)thiazolidine-2,4-dione hydrochloride]
47.8	29.6	NC(=O)COc1cccc(/C=C2\SC(=O)NC2=O)c1 [Example 84C, (Z)-2-(3-((2,4-dioxothiazolidin-5-ylidene)methyl)phenoxy)acetamide]
82.8	44.6	COCC(=O)N[C@H]1CCN(c2c(Cl)cccc2/C=C2\SC(=O)NC2=O)C1 [Example 136]
93	93.9	COc1cc(/C=C2\SC(=O)NC2=O)c(N2CC[C@@H](N)C2)cc1OC [Example 100, (R,Z)-5-(2-(3-aminopyrrolidin-1-yl)-4,5-dimethoxybenzylidene)thiazolidine-2,4-dione hydrochloride]
92.8	–	O=C1NC(=O)/C(=C/c2cc(C(F)(F)F)cc(Cl)c2N2CCOCC2)S1 [Example 29]
< 5	< 5	CC(=O)Nc1ccc(N2CCC(N(C)C)C2)c(/C=C2\SC(=O)NC2=O)c1 (stereo not drawn) [Example 131B]
87.9	63.2	NC(=O)NCC(=O)N[C@H]1CCN(c2c(Cl)cccc2/C=C2\SC(=O)NC2=O)C1 [Example 138]
> 95	55.2	Cc1ccc(N2CC[C@H](N(C)C)C2)c(C=C2SC(=O)NC2=O)c1 [Example 84L, (S)-5-(2-(3-(dimethylamino)pyrrolidin-1-yl)-5-methylbenzylidene)thiazolidine-2,4-dione]
92	63	COc1ccc(N2CC[C@H](N(C)C)C2)c(C=C2SC(=O)NC2=O)c1 [Example 84G, (S)-5-(2-(3-(dimethylamino)pyrrolidin-1-yl)-5-methoxybenzylidene)thiazolidine-2,4-dione]
42.5	10.8	Cn1ccnc1C(=O)N[C@H]1CCN(c2c(Cl)cccc2/C=C2\SC(=O)NC2=O)C1 [Example 135, (S,Z)-N-(1-(2-chloro-6-((2,4-dioxothiazolidin-5-ylidene)methyl)phenyl)pyrrolidin-3-yl)-1-methyl-1H-imidazole-2-carboxamide]
> 95	> 95	COc1cc(/C=C2\SC(=O)NC2=O)c(N2CCC(NCCCN)C2)cc1OC (stereo not drawn) [Example 126]
16	7.1	CC(C)(C)OC(=O)N1CCN(c2ccccc2/C=C2\SC(=O)NC2=O)CC1 [Example 58, (Z)-tert-butyl 4-(2-((2,4-dioxothiazolidin-5-ylidene)methyl)phenyl)piperazine-1-carboxylate]
56.2	20.1	COc1cc(/C=C2\SC(=O)NC2=O)c(N2CC[C@@H](NC(=O)CCCCN)C2)cc1OC [Example 119, (R,Z)-5-amino-N-(1-(2-((2,4-dioxothiazolidin-5-ylidene)methyl)-4,5-dimethoxyphenyl)pyrrolidin-3-yl)pentanamide hydrochloride]
89.4	57.3	COc1cc(/C=C2\SC(=O)NC2=O)c(N2CC[C@@H](N(C)C)C2)cc1OC [Example 39, (R,Z)-5-(2-(3-(dimethylamino)pyrrrolidin-1-yl)-4,5-dimethoxybenzylidene)thiazolidine-2,4-dione]
> 95	82.7	CN(C)[C@H]1CCN(c2ccc(Cl)cc2C=C2SC(=O)NC2=O)C1 [Example 84I, (S)-5-(5-chloro-2-(3-(dimethylamino)pyrrolidin-1-yl)benzylidene)thiazolidine-2,4-dione]
85.5	80.6	COc1cc(/C=C2\SC(=O)NC2=O)c(N(C)CCN(C)C)cc1OC [Example 51, (5Z)-5-{2-[[2-(dimethylamino)ethyl](methyl)amino]-4,5-dimethoxybenzylidene}-1,3-thiazolidine-2,4-dione]
91.5	60.8	CCCN(CCC)[C@@H]1CCCN(c2c(Cl)cccc2/C=C2\SC(=O)NC2=O)C1 [Example 148, (R,Z)-5-(3-chloro-2-(3-(dipropylamino)piperidin-1-yl)benzylidene)thiazolidine-2,4-dione]
–	< 5	O=C1NC(=O)C(=Cc2c[nH]c3ccccc23)S1 (stereo in doubt) [Example 67, (Z)-5-((1H-indol-3-yl)methylene)thiazolidine-2,4-dione]
34	–	O=C1NC(=O)/C(=C/c2cccc(N3CCOCC3)c2)S1 [Example 83, (5Z)-5-(3-morpholin-4-ylbenzylidene)-1,3-thiazolidine-2,4-dione trifluoroacetate]
< 5	–	CN(C)CCCOc1ccccc1/C=C1\SC(=O)NC1=O [Example 81, (5Z)-5-{2-[3-(dimethylamino)propoxy]benzylidene}-1,3-thiazolidine-2,4-dione]

SMILES	inhibition at 0.3 µM [1] [%]	inhibition at 0.3 µM [2] [%]
N[C@@H]1CCCN(c2c(/C=C3\SC(=O)NC3=O)cccc2OC2CCC2)C1 [Example 122AD, (R,Z)-5-(2-(3-aminopiperidin-1-yl)-3-cyclobutoxybenzylidene)thiazolidine-2,4-dione hydrochloride]	> 95	> 95
NCCCN[C@H]1CCN(c2ccc(C(F)(F)F)cc2/C=C2\SC(=O)NC2=O)C1 [Example 123, (S,Z)-5-(2-(3-(3-aminopropylamino)pyrrolidin-1-yl)-5-(trifluoromethyl)benzylidene)thiazolidine-2,4-dione hydrochloride]	> 95	> 95
